Measurements taken from publication PMC8547495 (Journal of medicinal chemistry, 2021).
“Also recorded” adds a separate entry of the source.

Legend:
[1] = microsomes, 2 μM
in vivo = conditions: male, C57BL/6, mouse, ip, 50 mg/kg
A549 cells = conditions: for cytotoxicity compared with 1: at 100 μM; for concentration below which cytotoxicity was not observed: under the antiviral assay conditions, A549-hACE2
SARS-CoV-2 USA/WA1/2020 = type: cell-based; conditions: 20 μM, remdesivir 10 μM / 20 μM
SARS-CoV-2 PLpro [2] = molecular target: T1, SARS-CoV-2 PLpro (Severe acute respiratory syndrome coronavirus 2, UniProt P0DTD1); type: biochemical; conditions: for PLpro inhibition potency in words: compared with GRL0617 / parent
SARS-CoV-2 PLpro [3] = molecular target: T1, SARS-CoV-2 PLpro; assay: biochemical; type: binding
SARS-CoV-2 = conditions: at 33 μM, the maximum soluble dose; cited from earlier work

## Cc1ccc(NC2CNC2)cc1C(=O)N[C@H](C)c1cccc(-c2cccs2)c1 [ZN-3-80]
[1]
  human liver microsome stability in words: more stable than GRL0617

## Cc1ccc(NC2CNC2)cc1C(=O)N[C@H](C)c1cccc(-c2ccc(CN3CCCC3)s2)c1 [XR8-24]
In vivo
  Cmax: 12 to 13 µM
A549 cells
  cytotoxicity compared with 1: more cytotoxic than 1
  concentration below which cytotoxicity was not observed: < 50 µM
SARS-CoV-2 USA/WA1/2020
  effect of treatment on viral RNA versus remdesivir: not significantly different from that of remdesivir; also recorded: not significantly different from the FDA-approved RdRp inhibitor remdesivir

## CC[C@@H](NC(=O)c1cc(N(C)C2CNC2)ccc1C)c1cccc2ccccc12 [ZN-3-61]
SARS-CoV-2 PLpro [2]
  PLpro inhibition potency in words: significant decrease in potency

## Cc1ccc(NC2CNC2)cc1C(=O)N[C@H](C)c1cccc2ccccc12 [ZN-2-184]
SARS-CoV-2 PLpro [3]; SPR
  improvement in affinity relative to GRL0617: two-fold improvement in affinity
SARS-CoV-2 PLpro [3]; relative to GRL0617, engaging Site I or BL2 groove alone
  gain in binding stabilization from SPR affinity: 0.57 kcal/mol

## CNC(=O)C[C@@H](NC(=O)c1cc(N(C)C2CNC2)ccc1C)c1cccc2ccccc12 [DY2-116]
SARS-CoV-2 PLpro [3]
  Kd: > 1000 µM
SARS-CoV-2 PLpro [2]
  PLpro inhibition potency in words: almost completely inactive
SARS-CoV-2 PLpro [2]; read-out: Enzyme inhibition IC50, SARS-CoV-2 PLpro, Z-RLRGG-AMC substrate
  IC50: > 100 µM

## Cc1ccc(N)cc1C(=O)N[C@H](CCO)c1cccc2ccccc12 [DY2-97]
SARS-CoV-2 PLpro [2]
  PLpro inhibition potency in words: almost completely inactive

## COc1cc(CNC(=O)C2CCN(C(C)c3cccc4ccccc34)CC2)ccn1 (racemic) [rac5c]
SARS-CoV-2
  antiviral activity compared to remdesivir: 60%

## Cc1ccc(NC2CNC2)cc1C(=O)N[C@H](C)c1cccc(-c2ccc(CNC3CCCC3)s2)c1 [XR8-23]
In vivo
  Cmax: 12 to 13 µM
A549 cells
  cytotoxicity compared with 1: more cytotoxic than 1
  concentration below which cytotoxicity was not observed: < 10 µM
